This passage reports Activity results from ChEMBL document CHEMBL3045274, “Xyloccensins QV, six new 8,9,30-phragmalin ortho ester antifeedants from the Chinese mangrove Xylocarpus granatum” (Tetrahedron, 2005).

The experiment deals with Mythimna separata. Description: Antifeedant activity against third instar larvae of Mythimna separata (Oriental armyworm) in compound treated leaf disk at 500 ppm. It is filed as functional, organism-based.

Active and inactive are the calls of the source. The rule behind the calls is not given here.

Take `COC(=O)[C@@H](O)[C@@H]1[C@@]2(C)C[C@@]3(O)[C@@](O)([C@@H]2OC(C)=O)[C@@H]2O[C@]4(C)O[C@]5(C[C@@H](OC(C)=O)[C@@]6(C)C(=CC(=O)O[C@@H]6c6ccoc6)[C@]25O4)[C@@]13C`: the result was inactive.
Under `COC(=O)[C@@H](OC(C)=O)[C@@H]1[C@@]2(C)C[C@@]3(O)[C@@](O)([C@@H]2OC(C)=O)[C@@H]2O[C@]4(C)O[C@]5(C[C@@H](OC(C)=O)[C@@]6(C)C(=CC(=O)O[C@@H]6c6ccoc6)[C@]25O4)[C@@]13C` stands “Active”; under `COC(=O)[C@@H](O)[C@@H]1[C@@]2(C)C[C@@]3(O)[C@H]([C@H]4O[C@]5(C)O[C@]6(C[C@@H](OC(C)=O)[C@@]7(C)C(=CC(=O)O[C@@H]7c7ccoc7)[C@]46O5)[C@@]13C)[C@@H]2OC(C)=O`, “inactive”; under `COC(=O)[C@H](OC(C)=O)[C@H]1[C@]2(C)C[C@]3(O)[C@H]([C@H]2OC(C)=O)[C@H]2O[C@@]4(C)O[C@@]5(CC[C@@]6(C)[C@H](c7ccoc7)OC(=O)C[C@@]6(O)[C@@]25O4)[C@]13C`, “inactive”.
Under `COC(=O)[C@@H](O)[C@@H]1[C@@]2(C)C[C@@]3(O)[C@@](OC(C)=O)([C@@H]2OC(C)=O)[C@@H]2O[C@]4(C)O[C@]5(C[C@@H](OC(C)=O)[C@@]6(C)C(=CC(=O)O[C@@H]6c6ccoc6)[C@]25O4)[C@@]13C` stands “inactive”; under `COC(=O)[C@H](OC(C)=O)[C@H]1[C@]2(C)C[C@]3(O)[C@@](OC(C)=O)([C@H]4O[C@@]5(C)O[C@@]6(CC[C@@]7(C)[C@H](c8ccoc8)OC(=O)C[C@@]7(O)[C@@]46O5)[C@]13C)[C@H]2OC(C)=O`, “Active”.
Under `COC(=O)C[C@@H]1[C@@]2(C)C[C@@]3(O)[C@@](OC(C)=O)([C@@H]2OC(C)=O)[C@@H]2O[C@]4(C)O[C@]5(C[C@@H](OC(C)=O)[C@@]6(C)C(=CC(=O)O[C@@H]6c6ccoc6)[C@]25O4)[C@@]13C` stands “inactive”; under `COC(=O)C[C@@H]1[C@@]2(C)C[C@@]3(O)[C@@](O)([C@@H]2OC(C)=O)[C@@H]2O[C@]4(C)O[C@]5(C[C@@H](OC(C)=O)[C@@]6(C)C(=CC(=O)O[C@@H]6c6ccoc6)[C@]25O4)[C@@]13C`, “inactive”.
